Assays:
[1] = tested on: Bovine cardiac myofibrils; assay: In vitro model of dose-dependent myofibril ATPase modulation (AC1.4, pyruvate kinase/lactate dehydrogenase-coupled ATPase assay at pCa25); type: biochemical; conditions: concentration at which ATPase activity was 1.4-fold higher than the bottom of the dose curve, mean of a minimum of two independent tests
In short: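 Bovine cardiac myofibrils, detergent-treated; 0.25-1.0 mg/ml. Buffer: K-PIPES 12 mM, MgCl2 2 mM, DTT 1 mM, BSA 0.1 mg/ml, pH 6.80, 22° C; Ca2+ set by EGTA/CaCl2. ATP 1 mM, NADH/PEP-coupled, A340. 4-parameter fit; n≥2.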

Male CD rats = assay: Echocardiography/ultrasound protocol: fractional shortening (% FS) during intravenous infusion, MEE; type: in vivo; parameters: unit not given here; conditions: rat, formulation 40% HPbCD, corrected for rat plasma protein binding
Procedure: Formulations: A compound as disclosed herein and water were admixed together. Either 30% wt/vol or 40% wt/vol of hydroxypropyl beta-cyclodextrin (HPBCD) was added and the mixture stirred until dissolved.
Echocardiography/ultrasound protocol: Serial echocardiography was conducted with the aid of an imaging system suitable for rodent cardiac ultrasound. Male CD rats (6-10 weeks of age; 6-12 animals per group) were cannulated with a jugular vein catheter to enable delivery of test article by intravenous infusion. […] An imaging probe was fixed in position to acquire short axis (SAX), motion (M)—mode images of the left cardiac ventricle at the level of the papillary muscles. Baseline data was acquired prior to initiating test article delivery. Test article (compound as disclosed herein in a HPBCD formulation), or vehicle control, was delivered with the aid of an infusion pump connected to the jugular vein catheter. Infusion rate of test article was increased at 15 min intervals, to a maximum of 5 mL/kg/hr. Ultrasound images were acquired at 5 min intervals. Additionally whole blood (not exceeding 10 uL) was collected via a tail nick at the same 5 min intervals for subsequent exposure determination.
Whole blood samples were analyzed by protein precipitation and liquid chromatography tandem mass spectrometry (LC-MS/MS) using multiple reaction monitoring (MRM) in positive ionization mode. The lower limit of quantitation (LLOQ) in the assay was 1 ng/mL and the upper limit of quantitation (ULOQ) was 10,000 ng/mL.
Offline data analysis of the SAX M-mode ultrasound images was conducted to derive measures of left ventricular end diastolic diameter (LVEDD), left ventricular end systolic diameter (LVESD) and subsequent calculation of fractional shortening (% FS) using the following formula: % FS=((LVEDD−LVESD)/LVEDD)*100. Minimally efficacious exposure (MEE) was defined as the exposure at which a 10% increase in % FS from baseline was observed. The MEE was derived by plotting assayed exposures against % FS and using non-linear curve fitting (log(exposure) vs. % FS; variable slope, 4 parameters). Response to vehicle at each time point was averaged and all test article responses were normalized to baseline and subtracted from time matched (averaged) vehicle responses.

[2] = Echocardiography, exposure at 10% increase in % FS from baseline

Row | Compound | AC1.4 [1] [µM] | MEE* (unbound), minimally efficacious exposure (Male CD rats; [2]) | MEE* (unbound), minimally efficacious exposure (Male CD rats; Echocardiography and PV Loop (both protocols named for this value))
1 | CS(=O)(=O)c1cc(C(=O)N2[C@@H](C(=O)N[C@@H](c3cc(F)c(C(F)(F)F)cc3F)C3CC3)C[C@H]3C[C@H]32)ccn1 [Example 279, (1R,3R,5R)—N—((R)-cyclopropyl(2,5-difluoro-4-(trifluoromethyl)phenyl)methyl)-2-(2-(methylsulfonyl)isonicotinoyl)-2-azabicyclo[3.1.0]hexane-3-carboxamide] | 0.7092 | 0.68 | 
2 | CS(=O)(=O)c1cc(C(=O)N2[C@@H](C(=O)N[C@@H](c3cc(F)c(Cl)cc3F)C3CC3)C[C@H]3C[C@H]32)ccn1 [Example 314, (1R,3R,5R)—N—((R)-(4-chloro-2,5-difluorophenyl)(cyclopropyl)methyl)-2-(2-(methylsulfonyl)isonicotinoyl)-2-azabicyclo[3.1.0]hexane-3-carboxamide] | 0.846 | 0.16 | 
3 | CS(=O)(=O)c1cccc(C(=O)N2CCC[C@@H]2C(=O)N[C@@H](c2ccc(C(F)(F)F)cc2F)C2CC2)c1 [Example 364, (R)—N—((R)-cyclopropyl(2-fluoro-4-(trifluoromethyl)phenyl)methyl)-1-(3-(methylsulfonyl)benzoyl)pyrrolidine-2-carboxamide] | 1.04 |  | 0.27

Reference: patent publication US11780826B2 (Amgen Inc., priority 2017, dated 2023)
